Test results as given in US7504362B2, “Pesticidal compositions” (Merial Limited, priority 2002, dated 2009).

Tested on: Ctenocephalides felis, Diabrotica undecimpunctata, Nephotettix cincticeps or Rhipicephalus sanguineus
Test: Pooled statement: active in one or more of the above tests (Methods A to E)
Assay type: in vivo
Settings: active = reaching the threshold of Method A, B, C, D or E; test not given per compound
Protocol: The following representative test procedures, using compounds of the invention, were conducted to determine the parasiticidal and pesticidal activity of compounds of the invention.
A test container was filled with 10 adults of Ctenocephalides felis. A glass cylinder was closed on one end with parafilm and placed on top of the test container. The test compound solution was then pipetted into bovine blood and added to the glass cylinder. The treated Ctenocephalides felis were held in this artificial dog test (blood 37° C., 40-60% relative humidity; Ctenocephalides felis 20-22° C., 40-60% relative humidity) and assessment performed at 24 and 48 hours after application. Active compounds gave at least 90% control of Ctenocephalides felis at a test concentration of 5 ppm or less.
Two days before application, seeds of maize were soaked in water under warm conditions to elicit fast germination. One day before application, eggs of Diabrotica undecimpunctata were transferred to one half of a Japanese filter paper placed in a plastic petri dish. Afterwards, a sprouted maize seed was placed on a moistened pad beside the filter paper. Three drops of 200 microliters of test compound solution were carefully pipetted onto the egg. The remainder of the solution was placed on the maize and then the Petri dish was closed. The treated eggs in the Petri dishes were held in a climate chamber for 6 days. The compound efficacy (percentage of dead eggs and/or larvae in comparison to untreated control) was assessed 6 days after application using a binocular microscope.
Active compounds gave at least 90% control of Diabrotica undecimpunctata at a test concentration of 10 ppm.
The leaves of 12 rice plants having a stem length of 8 cm were dipped for 5 seconds into an aqueous solution of the formulated test compound. After the solution had run off, the rice plants treated in this manner were placed in a Petri dish and populated with about 20 larvae (L3 stage) of Nephotettix cincticeps. The Petri dish was closed and then stored in a climate chamber (16 hours of light/day, 25° C., 40-60% relative humidity). After 6 days storage, the percentage mortality of leafhopper larvae was determined.
Active compounds gave at least 98% mortality of Nephotettix cinciceps larvae at a test concentration of 100 ppm.
Solutions of the test compounds were dropped onto filter paper, dried and the filter paper placed into test tubes and infested with 10 adults of Ctenocephalides felis. The treated Ctenocephalides felis were held in a climate chamber (26° C., 80% RH) and the percentage efficacy assessed 24 hours and 48 hours after application in comparison with the untreated control.
Active compounds gave at least 70% contact control of Ctenocephalides felis at a test concentration of 1000 ppm.
Solutions of the test compounds were dropped onto filter paper, dried and the filter paper placed into test tubes and infested with 20-30 larvae (L1) of Rhipicephalus sanguineus and the tubes closed with a clip. The treated Rhipicephalus sanguineus were held in a climate chamber (25° C., 90% RH) and the percentage efficacy assessed 24 hours after application in comparison with the untreated control. Active compounds gave at least 70% contact control of Rhipicephalus sanguineus at a test concentration of 100 ppm.

## CN(c1c([S+]([O-])C(F)(F)F)c(C(N)=S)nn1-c1c(Cl)cc(C(F)(F)F)cc1Cl)S(=O)(=O)Cc1ccccc1 (stereo not shown) [Compound 7-32]
  active in one or more of the above tests: active
